This note sets out measurements from publication PMC5577515, “Peptide‐Directed Binding for the Discovery of Modulators of α‐Helix‐Mediated Protein–Protein Interactions: Proof‐of‐Concept Studies with the Apoptosis Regulator Mcl‐1” (Angewandte Chemie (International Ed. in English), 2017).

The structures appear in SMILES notation. Read-outs that look alike come from different tables or passages of the source. Where only a bound is given, the exact number is not on record here.

One test has as its target T1, Mcl-1 (UniProt P97287+Q07820).
T1 construct: amino acid residues 152-189 of mouse Mcl-1 fused with amino acid residues 209-327 of; 8 x His (N); TEV site (N); made in house; host or cells: E. coli BL21(DE3)pLysS
Description: Competitive fluorescence anisotropy (FA) assay, FITC-NoxaB displacement from Mcl-1. Format: binding. To be noted: SEM, read-out: FA IC50. As for the experimental part: Fmoc, 9-fluorenylmethylcarbony. IC50 determined by non -linear regression of at least three experiments.
4. Fluorescence Anisotropy Binding Assay
Fluorescence anisotropy was carried out on a BMG Labtech clariostar microplate reader with a fluorescence anisotropy optic measuring at 482/530 nm. Low -binding, Corning 96 -well black plates were used and all reagents used in the assay were biological grade and purchased from Sigma Aldrich and Novabioche m. All solutions were made using MilliQ water .
Anisotropy values were automatically calculated using the following formula […]
Where r = anisotropy, l a = parallel emission light, lb = perpendicular emission light and I = total […]
KD was determined using GraphPad Prism Version 6.0 software, using the One Site – Total binding […]
Where Bmax is the maximum specific binding, KD is the equilibrium binding constant, and NS is the slope of nonspecific binding. […]
IC50 was determined using GraphPad Prism Version 6.0 software, using a four-parameter logistic model, according to precedent from Ottmann and co-workers.[5] Errors are the transformed greater extreme of the standard error. […]
For binding each well contained 10 µL of Mcl -1 protein in 10-fold dilutions (0.37 pM to 3.7 µM) […]
protein were dissolved in PBS: 0.05% Tween -20 buffer at pH 7.4. Reagents were incubated for 30 min at room temperature prior to reading. Bubbles were removed and 8 data points were generated.
Figure S 1: Fluorescence Anisotropy direct titration.
To confirm reproducibility of
(µ) and standard deviations (σ) were inputted into the following equation:
Inhibition screens were carried out using 10 nM Mcl -1, 5 nM fluorescently-tagged peptide and 100 µM of inhibitor. Compounds were dissolved in DMSO. […]
control (DMSO) were used to define the mini mum and maximum values and ensure the assay was […]
(1 picture or pasted object on this page, not shown here) […]
Bubbles were removed and 8 data points were generated. […]
(Fluorescence polarisation rises when a labelled molecule tumbles more slowly, as on binding a larger partner.)

The target of a further test is T2, Bcl-2 (Homo sapiens, UniProt P10415, DEL35-91/INS34DVEENRTEAPEGTESE).
T2 construct: The Bcl-2 protein used in our study has the same construction as that used in the work of Fesik; purchased Dundee Cell Product Ltd
Briefly: Competitive FA assay, FITC-Bid displacement from Bcl-2. Format: binding. To be noted: 5 nM FITC-Bid, 30 nM Bcl-2; up to 100 µM compound. On the procedure: For binding each well contained 10 µL of Bcl -2 protein in 10-fold dilutions (0.90 pM to 9.0 µM) […]
(§1) were dissolved in PBS: 0.05% Tween -20 buffer at pH 7.4. Reagents were incubated for 30 min at room temperature prior to reading. Bubbles were removed and 8 data points were generated.
Figure S 3: Fluorescence Anisotropy direct titration. […] Normalized […]
(§2) (1 picture or pasted object on this page, not shown here)

The next test has as its target T3, Bcl-xL (Homo sapiens, UniProt Q07817, DEL45-84).
T3 construct: The Bcl-xL protein used in our study is a truncated construction of the full-length protein, with; purchased Dundee Cell Product Ltd
Description: Competitive FA assay, FITC-Bid displacement from Bcl-xL. Format: binding. As to conditions: 5 nM FITC-Bid, up to 100 µM compound. On the procedure: as §1, §2
Inhibition screens were carried out using […]

Another test has as its system MiaPaCa-2 cells. Description: MTS cytotoxicity assay, MiaPaCa-2. In kind it is cell-based. As to conditions: 37 °C, triplicate, at least three experiments, errors = transformed greater extreme of standard error, read-out: MiaPaCa-2 cell growth inhibition IC50. On the procedure:
(§3) CUSTOM_[…] ("<1>=[N+]",("charge", 0, 2)) […]
(§4) CUSTOM_[…] ("<1>=[N]=[N]",("bond",1,(2,3))) […]
(§5) CUSTOM_[…] ("<1>([C]=[C])=[N][N]",("bond",1,(3,5))) […]
(§6) The MiaPaCa-2 cell line, BxPC-3 cell line and AsPC-1 cell line were purchased from the European Collection of Cell Cultures (ECACC, Porton Down, UK). MiaPaCa-2 cells were cultured in DMEM media with 2 mM L-glutamine, 100 U/mL penicillin, 100 µg/mL streptomycin and 10% FCS.
(§7) BxPC-3 cells and AsPC-1 cells were cultured in RPMI-1640 media containing 2 mM L-glutamine, 100 U/mL penicillin, 100 µg/mL streptomycin and 10% FCS. Cells were sub-cultured twice weekly and maintained at 37 °C and 5% CO2.
(§8) The anti-proliferative activity of the compounds studied was assessed by MTS assay (Promega) following the manufacturer’s instructions. Cells were seeded at 5 x 103 / 100 μL in a 96-well plate and left untreated or treated with DMSO (vehicle control), or compounds 1-4 (100 μM – […], in well concentration) in triplicate for 72 h at 37 °C with 5% CO2. Following this, MTS assay reagent was added to each well and the plates incubated for 4 h at 37 °C with 5% CO2. The absorbance was measured at 492 nm using the BMG Labtech POLARstarOPTIMA microplate reader. […]
On the technique in general: Tetrazolium dyes change colour on reduction, which living cells bring about.

Test [1] relates to BxPC-3 cells. Briefly: MTS cytotoxicity assay, BxPC-3. In kind it is cell-based. To be noted: 37 °C, triplicate, at least three experiments, errors = transformed greater extreme of standard error, read-out: BxPC-3 cell growth inhibition IC50. As for the experimental part: as §3, §4, §5, §6, §7, §8
The test system of another test is AsPC-1 cells. Description: MTS cytotoxicity assay, AsPC-1. In kind it is cell-based. As to conditions: for IC50: 37 °C, triplicate, at least three experiments, errors = transformed greater extreme of standard error, read-out: AsPC-1 cell growth inhibition IC50; for activity against AsPC-1 cells: at the concentrations evaluated (up to 100 μM), result in words. As for the experimental part: as §3, §4, §5, §6, §7, §8

The test system of test [2] is BxPC-3 cells. Description: Annexin-V-FLUOS staining, phosphatidylserine externalization. Format: cell-based. To be noted: 4 h, fluorescence microscopy. On the procedure:
Figure 2 Representative small molecules induce hallmarks of apoptosis. A) Increase of caspase‐3 activation in BxPC‐3 cells 4 h after treatment. B) Externalization of phosphatidylserine, a hallmark of apoptosis, was evaluated by exposing BxPC‐3 cells to compounds 18 (25 μM), 20 (5 μM), 21 (5 μM), and 23 (25 μM) for 4 h followed by annexin‐V‐FLUOS. Images were taken at 10× magnification with a GFP filter (top) and white light (bottom). […]
as §3, §4, §5, §6
BxPC-3 cells and AsPC-1 cells were cultured in RPMI-1640 media containing 2 mM L-glutamine, 100 U/mL penicillin, 100 µg/mL streptomycin and 10% FCS. Cells were sub-cultured twice weekly and maintained at 37 °C and 5% CO2. […]
An Annexin-V-FLUOS/Propidium iodide staining kit (Roche Applied Science) was used to detect phosphatidylserine externalization in pancreatic cancer cell line BxPC-3. Cells, seeded in clear 96- […]
and treated with staining kit according to the manufacturer’s protocol. Fluorescence microscopy […]
was used to examine cells and pictures taken with an inverted Leica DMII fluorescence microscope […]
Caspase 3 activation assay […]

The mark [3] stands for this setting: Table 2, inhibition of binding of 5 nM FITC-NoxaB to 10 nM Mcl-1, PBS, 0.05% Tween-20, pH 7.4, non-linear regression of at least three experiments, errors = transformed greater extreme of standard error.

T1 sequence (P97287 152-189 limits assumed): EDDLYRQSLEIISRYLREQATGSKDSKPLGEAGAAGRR
T1 sequence (Q07820 209-327 limits assumed): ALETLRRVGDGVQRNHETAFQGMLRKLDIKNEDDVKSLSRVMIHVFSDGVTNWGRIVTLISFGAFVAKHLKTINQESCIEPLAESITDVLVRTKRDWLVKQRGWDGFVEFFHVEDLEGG
T3 sequence (Q07817 with tags, fused parts or gaps DEL45-84): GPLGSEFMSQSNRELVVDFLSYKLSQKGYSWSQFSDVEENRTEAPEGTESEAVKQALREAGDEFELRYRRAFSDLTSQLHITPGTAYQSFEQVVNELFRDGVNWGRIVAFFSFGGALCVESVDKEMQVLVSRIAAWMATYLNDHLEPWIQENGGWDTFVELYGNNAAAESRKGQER
T2 sequence (P10415 with tags, fused parts or gaps INS34DVEEN/V35R/G36T/A37E/P40E/DEL42-87/P88T/V89E/P90S/P91E): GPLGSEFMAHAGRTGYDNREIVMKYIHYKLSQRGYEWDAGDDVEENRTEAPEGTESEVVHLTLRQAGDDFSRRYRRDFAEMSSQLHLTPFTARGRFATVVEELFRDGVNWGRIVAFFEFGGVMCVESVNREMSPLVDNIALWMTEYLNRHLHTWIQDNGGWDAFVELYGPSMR

On to `COC(=O)C(Cc1cn(C23CC4CC(CC(C4)C2)C3)nn1)NC(=O)OCC1c2ccccc2-c2ccccc21` (stereo not drawn) [Compound 18], for which the IC50 (usually the concentration that inhibits the measured activity by half) on Mcl-1 (setting [3]) was 0.186 ± 0.02 µM; with MiaPaCa-2 cells (72 h, SEM) it was 15.2 ± 0.75 µM; with BxPC-3 cells [1] (72 h, SEM), 29.8 ± 4.15 µM; with AsPC-1 cells (72 h), greater than 100 µM. Moreover, on Bcl-2, the “binding to Bcl-2 in FA assay” value is “no appreciable binding”. For the same compound, on Bcl-xL, the “binding to Bcl-xL in FA assay” value is given as “no appreciable binding”. In addition, the “activity against AsPC-1 cells” value in the test on AsPC-1 cells was “ineffective”. The “externalization of phosphatidylserine (annexin-V-FLUOS binding)” value (from here on “externalization of phosphatidylserine”) in the test with BxPC-3 cells [2] (25 μM) is reported as “induce the externalization of phosphatidylserine”.

As to `COC(=O)C(Cc1cn(Cc2ccc(C#N)cc2)nn1)NC(=O)OCC1c2ccccc2-c2ccccc21` (stereo not drawn) [Compound 20], the IC50 at Mcl-1 (setting [3]) was 0.249 ± 0.051 µM; in the test with MiaPaCa-2 cells (72 h, SEM), 6.57 ± 3.92 µM; in the test with BxPC-3 cells [1] (72 h, SEM), 5.98 ± 1.14 µM; with AsPC-1 cells (72 h, SEM), 2.04 ± 0.62 µM. Further, the “externalization of phosphatidylserine” value with BxPC-3 cells [2] (5 μM) was “induce the externalization of phosphatidylserine”.

Regarding `COC(=O)C(Cc1cn(Cc2ccc(Cl)cc2)nn1)NC(=O)OCC1c2ccccc2-c2ccccc21` (stereo not drawn) [Compound 21], the IC50 at Mcl-1 (setting [3]) is 1.26 ± 0.142 µM; in the test with MiaPaCa-2 cells (72 h, SEM), 1.85 ± 3.17 µM; with BxPC-3 cells [1] (72 h, SEM) it was 2.81 ± 0.4 µM; with AsPC-1 cells (72 h) it was greater than 100 µM. At Bcl-2, the “binding to Bcl-2 in FA assay” value is given as “no appreciable binding”. Moreover, the “binding to Bcl-xL in FA assay” value on Bcl-xL is given as “no appreciable binding”. Besides, the “activity against AsPC-1 cells” value in the test with AsPC-1 cells was “ineffective”. The “externalization of phosphatidylserine” value in the test with BxPC-3 cells [2] (5 μM) was “induce the externalization of phosphatidylserine”.

As for `COC(=O)[C@H](Cc1cn(Cc2ccccc2F)nn1)NC(=O)OCC1c2ccccc2-c2ccccc21` [Compound 23, methyl (S)-2-((((9H-fluoren-9-yl)methoxy)carbonyl)amino)-3-(1-(2-fluorobenzyl)-1H-1,2,3-triazol-4-yl)propanoate], the IC50 is 1.7 ± 0.23 µM at Mcl-1 (setting [3]); 19.5 ± 1.35 µM in the test with MiaPaCa-2 cells (72 h, SEM); 25.2 ± 2.66 µM in the test on BxPC-3 cells [1] (72 h, SEM); 10.5 ± 1.53 µM with AsPC-1 cells (72 h, SEM). In addition, the “externalization of phosphatidylserine” value in the test with BxPC-3 cells [2] (25 μM) is recorded as “induce the externalization of phosphatidylserine”.

For `Clc1ccc(-c2cn(Cc3ccccc3)nn2)c(Cl)c1` [Compound 25, 1-benzyl-4-(2,4-dichlorophenyl)-1H-1,2,3-triazole], the half-maximal inhibitory concentration (IC50) on Mcl-1 was 5.5 ± 3.92 µM; in the test with MiaPaCa-2 cells (Homo sapiens, MIA PaCa-2, 72 h), greater than 100 µM; in the test on BxPC-3 cells [1] (Homo sapiens, BXPC-3, 72 h), greater than 100 µM; in the test on AsPC-1 cells (Homo sapiens, ASPC1, 72 h) it was greater than 100 µM.
